{"source": "paper PMC9007350", "about": "“Aurintricarboxylic acid is a canonical disruptor of the TAZ-TEAD transcriptional complex” (PLoS ONE, 2022)", "key": {"TAZ": {"biological_target": "T1, TAZ (Homo sapiens, UniProt Q9GZV5)", "T1 construct": "ThermoFluor assays measuring the melting temperatures (Tm) of full-length TAZ or TEAD in the presence of ATA; strep (C); made in house; host or cells: Escherichia coli BL21(DE3)pLysS", "T1 sequence (Q9GZV5 whole entry)": "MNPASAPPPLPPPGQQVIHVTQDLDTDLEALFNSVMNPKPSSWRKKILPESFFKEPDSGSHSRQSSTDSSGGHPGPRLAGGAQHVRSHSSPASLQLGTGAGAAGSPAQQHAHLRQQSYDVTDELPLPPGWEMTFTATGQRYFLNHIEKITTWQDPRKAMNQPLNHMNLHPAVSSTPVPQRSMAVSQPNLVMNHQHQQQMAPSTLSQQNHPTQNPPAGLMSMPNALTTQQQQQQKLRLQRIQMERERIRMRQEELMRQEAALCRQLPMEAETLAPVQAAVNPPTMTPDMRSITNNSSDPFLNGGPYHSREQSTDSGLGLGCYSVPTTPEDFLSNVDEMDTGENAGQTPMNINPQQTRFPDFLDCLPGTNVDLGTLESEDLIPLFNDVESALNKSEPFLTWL", "test": "ThermoFluor assay, TAZ", "type": "binding", "conditions": "full-length TAZ, protein 5 μM", "experimental": "To assess changes in protein stability, a dye-based thermal melting assay (ThermoFluor) was used. Purified protein (TAZ or TEAD4), ATA, and Protein Thermal Shift dye (ThermoFisher) were mixed in 96-well plates. The final concentration of the protein was 5 μM. The melting temperature was measured using LightCycler 480 (Roche). Each experiment was repeated at least twice."}, "[1]": {"system": "TC/TEAD transcriptional profile in TC-expressing NIH3T3 cells", "test": "Bulk RNA-Seq, differential gene expression and GSEA (TC ATA v. TC DMSO)", "type": "cell-based, murine", "experimental": "NIH3T3 and HEK293 cells were obtained from the American Type Tissue Collection (ATCC, Manassas, VA) and cultured in DMEM containing 10% fetal bovine serum and penicillin/streptomycin. A TEAD dual luciferase reporter assay was performed as previously described. Cells were treated with vehicle control or ATA (10 μM) for 48 h before measuring the luciferase activity or processing the samples for RNA extraction. Each experiment was repeated at least 2-3 times. NIH3T3 cells were used. The extracted RNA (RNeasy Mini, Qiagen) from treated cells was either used for qPCR measurements or sent for bulk RNA-Seq. Sequencing runs were performed on an Illumina HiSeq 4000 sequencer (Genewiz). Subsequent bioinformatics analysis was performed in the Galaxy Project platform. Paired end reads were aligned to the murine genome ([…]2 [27]. Raw count files were generated with featureCounts using a corresponding GTF reference. Differential gene expression analysis was performed with DESeq2 [29]. Transcripts were considered to be differentially expressed if the false discovery rate < 0.05 and Log2FC > 2. When performing differential gene expression for GSEA analysis, the Limma package was used (<5 CPM filtering) with t-scores used for rank statistics. GSEA plots and statistics were generated with FGSEA with custom gene sets. Raw sequencing reads and processed files have been deposited in the GEO repository (data will be uploaded upon manuscript acceptance). The Universal Probe Library probes (Roche) and the associated primer sequences for the qPCR targets are listed below: […]"}}, "data": [{"smiles": "O=C(O)C1=CC(=C(c2ccc(O)c(C(=O)O)c2)c2ccc(O)c(C(=O)O)c2)C=CC1=O", "note": "[ATA, aurintricarboxylic acid]", "values": [{"measurement": "melting temperature (Tm) of TAZ + ATA", "setting": "TAZ", "value": 53.1, "unit": "°C"}, {"measurement": "Log2 Fold Change, Pkig (ENSMUSG00000035268)", "setting": "[1]", "value": 0.2955}, {"measurement": "GSEA normalized enrichment score (NES) for the 248 TC-upregulated genes", "setting": "[1]; ATA-treated vs vehicle, TC-expressing NIH3T3, 10 μM, 48 h, P = 0.0036", "value": -2.027}, {"measurement": "Log2 Fold Change, Cep83os (ENSMUSG00000097164)", "setting": "[1]; TC ATA v. TC DMSO, RNA-Seq differential gene expression, gene Cep83os", "value": 0.5451}, {"measurement": "Log2 Fold Change, P3h1 (ENSMUSG00000028641)", "setting": "[1]; TC ATA v. TC DMSO, RNA-Seq differential gene expression, gene P3h1", "value": 0.1936}, {"measurement": "Log2 Fold Change, Per1 (ENSMUSG00000020893)", "setting": "[1]; TC ATA v. TC DMSO, RNA-Seq differential gene expression, gene Per1", "value": 0.3113}, {"measurement": "Log2 Fold Change, Spn (ENSMUSG00000051457)", "setting": "[1]; TC ATA v. TC DMSO, RNA-Seq differential gene expression, gene Spn", "value": 0.7001}, {"measurement": "Log2 Fold Change, Wnt9a (ENSMUSG00000000126)", "setting": "[1]; TC ATA v. TC DMSO, RNA-Seq differential gene expression, gene Wnt9a", "value": -0.2847}, {"measurement": "Log2 Fold Change", "setting": "[1]; gene AW551984, TC ATA v. TC DMSO", "value": 0.7046}, {"measurement": "Log2 Fold Change", "setting": "[1]; gene Abcd2, TC ATA v. TC DMSO", "value": 0.775}, {"measurement": "Log2 Fold Change", "setting": "[1]; gene Adgra2, TC ATA v. TC DMSO", "value": -0.4459}, {"measurement": "Log2 Fold Change", "setting": "[1]; gene Adgrl2, TC ATA v. TC DMSO", "value": 0.4171}, {"measurement": "Log2 Fold Change", "setting": "[1]; gene Angpt2, TC ATA v. TC DMSO", "value": 1.066}, {"measurement": "Log2 Fold Change", "setting": "[1]; gene Angptl2, TC ATA v. TC DMSO", "value": -0.3301}, {"measurement": "Log2 Fold Change", "setting": "[1]; gene Asb4, TC ATA v. TC DMSO", "value": 0.7498}, {"measurement": "Log2 Fold Change", "setting": "[1]; gene Asic1, TC ATA v. TC DMSO", "value": 0.4827}, {"measurement": "Log2 Fold Change", "setting": "[1]; gene Atg9b, TC ATA v. TC DMSO", "value": -1.183}, {"measurement": "Log2 Fold Change", "setting": "[1]; gene Atp1a2, TC ATA v. TC DMSO", "value": 0.776}, {"measurement": "Log2 Fold Change", "setting": "[1]; gene Atp1b1, TC ATA v. TC DMSO", "value": 0.4541}, {"measurement": "Log2 Fold Change", "setting": "[1]; gene Cacng7, TC ATA v. TC DMSO", "value": 0.4229}, {"measurement": "Log2 Fold Change", "setting": "[1]; gene Cbr2, TC ATA v. TC DMSO", "value": 1.297}, {"measurement": "Log2 Fold Change", "setting": "[1]; gene Ccdc80, TC ATA v. TC DMSO", "value": 0.4999}, {"measurement": "Log2 Fold Change", "setting": "[1]; gene Cd24a, TC ATA v. TC DMSO", "value": 0.8435}, {"measurement": "Log2 Fold Change", "setting": "[1]; gene Cd81, TC ATA v. TC DMSO", "value": 0.3883}, {"measurement": "Log2 Fold Change", "setting": "[1]; gene Chrnb1, TC ATA v. TC DMSO", "value": -0.628}, {"measurement": "Log2 Fold Change", "setting": "[1]; gene Ckmt2, TC ATA v. TC DMSO", "value": 0.9415}, {"measurement": "Log2 Fold Change", "setting": "[1]; gene Clu, TC ATA v. TC DMSO", "value": 0.6162}, {"measurement": "Log2 Fold Change", "setting": "[1]; gene Col4a6, TC ATA v. TC DMSO", "value": 0.4089}, {"measurement": "Log2 Fold Change", "setting": "[1]; gene Coq8a, TC ATA v. TC DMSO", "value": 0.862}, {"measurement": "Log2 Fold Change", "setting": "[1]; gene Creg1, TC ATA v. TC DMSO", "value": 0.425}, {"measurement": "Log2 Fold Change", "setting": "[1]; gene Csrp2, TC ATA v. TC DMSO", "value": -0.43}, {"measurement": "Log2 Fold Change", "setting": "[1]; gene Cth, TC ATA v. TC DMSO", "value": -0.3812}, {"measurement": "Log2 Fold Change", "setting": "[1]; gene Dhrs3, TC ATA v. TC DMSO", "value": 0.4703}, {"measurement": "Log2 Fold Change", "setting": "[1]; gene Dlk1, TC ATA v. TC DMSO", "value": 0.4509}, {"measurement": "Log2 Fold Change", "setting": "[1]; gene Dmpk, TC ATA v. TC DMSO", "value": 0.6567}, {"measurement": "Log2 Fold Change", "setting": "[1]; gene Dpep1, TC ATA v. TC DMSO", "value": 0.7304}, {"measurement": "Log2 Fold Change", "setting": "[1]; gene Epha4, TC ATA v. TC DMSO", "value": 0.8248}, {"measurement": "Log2 Fold Change", "setting": "[1]; gene Ercc1, TC ATA v. TC DMSO", "value": -0.7217}, {"measurement": "Log2 Fold Change", "setting": "[1]; gene Errfi1, TC ATA v. TC DMSO", "value": -0.4719}, {"measurement": "Log2 Fold Change", "setting": "[1]; gene Fabp3, TC ATA v. TC DMSO", "value": 1.14}, {"measurement": "Log2 Fold Change", "setting": "[1]; gene Fam13c, TC ATA v. TC DMSO", "value": 0.6886}, {"measurement": "Log2 Fold Change", "setting": "[1]; gene Fam110c, TC ATA v. TC DMSO", "value": -0.7995}, {"measurement": "Log2 Fold Change", "setting": "[1]; gene Fam114a1, TC ATA v. TC DMSO", "value": 0.3512}, {"measurement": "Log2 Fold Change", "setting": "[1]; gene Fgf7, TC ATA v. TC DMSO", "value": 0.4417}, {"measurement": "Log2 Fold Change", "setting": "[1]; gene Fn1, TC ATA v. TC DMSO", "value": 0.5505}, {"measurement": "Log2 Fold Change", "setting": "[1]; gene Galnt15, TC ATA v. TC DMSO", "value": 1.35}, {"measurement": "Log2 Fold Change", "setting": "[1]; gene Gas1, TC ATA v. TC DMSO", "value": 0.4145}, {"measurement": "Log2 Fold Change", "setting": "[1]; gene Ggct, TC ATA v. TC DMSO", "value": -0.7955}, {"measurement": "Log2 Fold Change", "setting": "[1]; gene Gm49774, TC ATA v. TC DMSO", "value": -0.6084}, {"measurement": "Log2 Fold Change", "setting": "[1]; gene Gse1, TC ATA v. TC DMSO", "value": 0.7002}, {"measurement": "Log2 Fold Change", "setting": "[1]; gene Gsta3, TC ATA v. TC DMSO", "value": 0.7075}, {"measurement": "Log2 Fold Change", "setting": "[1]; gene Gstm1, TC ATA v. TC DMSO", "value": 0.6142}, {"measurement": "Log2 Fold Change", "setting": "[1]; gene Hivep3, TC ATA v. TC DMSO", "value": 0.5196}, {"measurement": "Log2 Fold Change", "setting": "[1]; gene Hmga1b, TC ATA v. TC DMSO", "value": -0.4737}]}]}
